Measured values: PubChem BioAssay AID1963960 (Molecular Pharmacology Branch, DTP, NCI, 2024)

Test system: MDA-MB-468 spheroids with HUVEC/MSC, viability
Assay: Anticancer human tumor MDA-MB-468 cell line growth inhibition [PI3K];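 further: spheroids exposed to agents for seven days before readout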;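 on viability, T/C: 100% = DMSO vehicle control viability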
Details: for IC50: curve of first compound; for viability, T/C: stronger effect = lower value
Summary of the method: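 Viability of mixed-cell spheroids was determined after exposure to pairwise combinations, one partner being inavolisib, alpelisib, duvelisib or copanlisib. Highest tested concentration matched clinical Cmax where known and 10 microM where not, descending in half-log steps.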

In the case of `CC1(C)CCC(CN2CCN(c3ccc(C(=O)NS(=O)(=O)c4ccc(NCC5CCOCC5)c([N+](=O)[O-])c4)c(Oc4cnc5[nH]ccc5c4)c3)CC2)=C(c2ccc(Cl)cc2)C1` + CC(Nc1ncnc2nc[nH]c12)c1cc2cccc(Cl)c2c(=O)n1-c1ccccc1, the IC50 (second compound 0.0316 µM) is reported as 4.8 µM, the IC50 (second compound 0.1 µM) is reported as 4.53 µM and the IC50 (second compound 0.316 µM) is reported as 4.3 µM. The IC50 (second compound 1 µM) was 3.73 µM, the IC50 (second compound 3.16 µM) was 0.0316 µM and the IC50 (second compound 10 µM) was < 0.0316 µM. It also gave a viability, T/C (second compound 0.0316 µM, first compound 0.0316 µM) of 90.5%, a viability, T/C (second compound 0.0316 µM, first compound 0.1 µM) of 84.6% and a viability, T/C (second compound 0.0316 µM, first compound 0.316 µM) of 87%. The viability, T/C (second compound 0.0316 µM, first compound 1 µM) was 87.4%, the viability, T/C (second compound 0.0316 µM, first compound 3.16 µM) was 69.9% and the viability, T/C (second compound 0.0316 µM, first compound 10 µM) was 15.2%. The viability, T/C (second compound 0.1 µM, first compound 0.0316 µM) was 83.8%, the viability, T/C (second compound 0.1 µM, first compound 0.1 µM) was 82.2% and the viability, T/C (second compound 0.1 µM, first compound 0.316 µM) was 79.6%. For the same compound, the viability, T/C (second compound 0.1 µM, first compound 1 µM) was 76.1%, the viability, T/C (second compound 0.1 µM, first compound 3.16 µM) was 65.1% and the viability, T/C (second compound 0.1 µM, first compound 10 µM) was 18.3%. For the same compound, the viability, T/C (second compound 0.316 µM, first compound 0.0316 µM) was 76.5%, the viability, T/C (second compound 0.316 µM, first compound 0.1 µM) was 68.5% and the viability, T/C (second compound 0.316 µM, first compound 0.316 µM) was 78%. For the same compound, the viability, T/C (second compound 0.316 µM, first compound 1 µM) was 68.8%, the viability, T/C (second compound 0.316 µM, first compound 3.16 µM) was 62.6% and the viability, T/C (second compound 0.316 µM, first compound 10 µM) was 17.2%. For the same compound, the viability, T/C (second compound 1 µM, first compound 0.0316 µM) was 58.9%, the viability, T/C (second compound 1 µM, first compound 0.1 µM) was 65% and the viability, T/C (second compound 1 µM, first compound 0.316 µM) was 69.9%. For the same compound, the viability, T/C (second compound 1 µM, first compound 1 µM) was 72.2%, the viability, T/C (second compound 1 µM, first compound 3.16 µM) was 55.8% and the viability, T/C (second compound 1 µM, first compound 10 µM) was 15.5%. The viability, T/C (second compound 3.16 µM, first compound 0.0316 µM) was 50%, the viability, T/C (second compound 3.16 µM, first compound 0.1 µM) was 46.9% and the viability, T/C (second compound 3.16 µM, first compound 0.316 µM) was 47.2%. For the same compound, the viability, T/C (second compound 3.16 µM, first compound 1 µM) was 49.4%, the viability, T/C (second compound 3.16 µM, first compound 3.16 µM) was 50.5% and the viability, T/C (second compound 3.16 µM, first compound 10 µM) was 13.8%. It also gave a viability, T/C (second compound 10 µM, first compound 0.0316 µM) of 38.4%, a viability, T/C (second compound 10 µM, first compound 0.1 µM) of 30.9% and a viability, T/C (second compound 10 µM, first compound 0.316 µM) of 39%. For the same compound, the viability, T/C (second compound 10 µM, first compound 1 µM) was 42.5%, the viability, T/C (second compound 10 µM, first compound 3.16 µM) was 32.3% and the viability, T/C (second compound 10 µM, first compound 10 µM) was 15.4%.
